Measurements as given in patent US20250145639A1, “MUTANT KRAS MODULATORS AND USES THEREOF” (NEWAVE PHARMACEUTICAL INC., priority 2021, published 2025).

Assays:
[1] = molecular target: T1, HIS-KRAS (G12C, aa 2-185) (Homo sapiens, UniProt P01116, G12C); experiment: KRas G12C binding assay (TR-FRET, SOS1-mediated BODIPY FL GTP nucleotide exchange); settings: GDP-loaded HIS-KRAS (G12C) 3 nM, 1 hour pre-incubation with compound, 4 hours with SOS1 ExD and BODIPY FL GTP at 25° C
T1 construct: HIS-KRAS (G12C, aa 2-185, Sino biological); purchased Sino biological
T1 sequence (P01116 2-185 isoform P01116-2 G12C): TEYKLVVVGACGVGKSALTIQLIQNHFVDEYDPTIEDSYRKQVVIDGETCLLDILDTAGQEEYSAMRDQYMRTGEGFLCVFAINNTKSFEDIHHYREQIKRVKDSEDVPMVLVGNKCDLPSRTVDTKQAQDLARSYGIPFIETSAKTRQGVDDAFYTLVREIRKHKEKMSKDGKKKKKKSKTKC
Experimental: Biological Example 1: KRas G12C Binding Assay
(§1) HIS-KRAS (G12C, aa 2-185, Sino biological) was diluted to 5 uM in EDTA buffer (20 mM HEPES, pH 7.4, 50 mM NaCl, 10 mM EDTA, 0.01% (v/v) Tween-20) and incubated for 30 min at 25° C. The EDTA pretreated HIS-KRAS (G12C) was diluted to 12 nM in assay buffer (25 mM HEPES, pH 7.4, 120 mM NaCl, 5 mM MgCl 2, 1 mM DTT, 0.01% (v/v) Tween 20, 0.1% (w/v) BSA) containing 120 nM GDP (Sigma) and MAb Anti 6HIS—Tb cryptate Gold (Cisbio) and incubated for 1 hour at 25° C. to prepare GDP-loaded HIS-KRAS (G12C). The GDP-loaded HIS-KRAS (G12C) was pre-incubation with diluted compounds in a 384-well plate (Greiner) for 1 hour, then purified SOS1 ExD (Flag tag, aa 564-1049) and BODIPY™ FL GTP (Invitrogen) were added to the assay wells (Final concentration: 3 nM HIS-KRAS (G12C), 2 uM SOS1 ExD, 80 nM BODIPY™ FL GTP, 21 ng/mL MAb Anti 6HIS—Tb cryptate Gold) and incubated for 4 hours at 25° C. TR-FRET signals were then read on Tecan Spark multimode microplate reader. The parameters were F486: Excitation 340 (35) nm, Emission 486 (10) nm, Lag time 100 μs, Integration time 200 μs; F515: Excitation 340 (35) nm, Emission 515 (10) nm, Lag time 100 μs, Integration time 200 μs. TR-FRET ratios for each individual wells were calculated by equation: TR-FRET ratio=(Signal F515/Signal F486)*10000. Then the data were analyzed using a 4-parameter logistic model to calculate IC50 values. The following table lists the IC50 values of certain compounds of the invention.

[2] = molecular target: T2, GDP-loaded, histidine-tagged, truncated (1-169) KRAS G12C (Homo sapiens, UniProt P01116, G12C); experiment: KRas G12C in vitro covalent MS-based assay; format: binding; settings: KRAS protein 2 uM, denaturing SEC-MS intact mass
T2 construct: histidine-tagged, truncated (1-169) KRAS proteins; His
T2 sequence (P01116 1-169 isoform P01116-2 G12C): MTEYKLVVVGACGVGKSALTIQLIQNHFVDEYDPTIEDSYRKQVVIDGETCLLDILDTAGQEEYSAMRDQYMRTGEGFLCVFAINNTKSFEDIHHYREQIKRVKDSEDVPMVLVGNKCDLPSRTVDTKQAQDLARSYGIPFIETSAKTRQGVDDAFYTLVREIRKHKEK
Experimental: Biological Example 2: KRas G12C In Vitro Covalent MS-Based Assay
GDP-loaded, histidine-tagged, truncated (1-169) KRAS proteins (G12C, WT, G13D, as indicated) at 2 uM final concentration were incubated with the test compounds at the doses and time points indicated in a buffer containing 20 mmol/L HEPES pH 7.5, 150 mmol/L NaCl, 1 mmol/L MgCl 2, and 1 mmol/L DTT. Reactions were quenched by adding formic acid to 0.2%. Samples were buffer exchanged and analyzed by denaturing SEC-MS (Orbitrap Eclipse), Mobile phase: 30% ACN, 0.1% formic acid, 0.02% TFA. Raw data were analyzed by charge state deconvolution with BioPharma Finder 4.1 Intact Mass, ReSpect and Sliding Window algorithms. The masses were calculated via software for KRAS_G12C theoretical sequence and experimental compounds.

HIS-KRAS (G12V) = HIS-KRAS (G12V) (Homo sapiens, UniProt P01116, G12V); experiment: KRas G12V binding assay (TR-FRET, SOS1-mediated BODIPY FL GTP nucleotide exchange); settings: GDP-loaded HIS-KRAS (G12V) 3 nM, 1 hour pre-incubation with compound, 4 hours with SOS1 ExD and BODIPY FL GTP at 25° C
Chain of HIS-KRAS (G12V) (P01116 1-188 isoform P01116-2 G12V): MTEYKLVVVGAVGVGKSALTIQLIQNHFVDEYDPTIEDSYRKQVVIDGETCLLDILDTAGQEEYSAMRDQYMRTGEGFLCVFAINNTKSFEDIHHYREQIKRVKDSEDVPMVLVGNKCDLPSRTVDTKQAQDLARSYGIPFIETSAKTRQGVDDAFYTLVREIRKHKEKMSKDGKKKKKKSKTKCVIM
Experimental: Biological Example 3: KRas G12V Binding Assay
as §1, with “(G12V)” for “(G12C, aa 2-185, Sino biological)”, “(G12V)” for “(G12C)”, “(G12V).” for “(G12C).”, “(G12V),” for “(G12C),”

C#Cc1c(F)ccc2cc(O)cc(-c3ncc4c(N5CCCC[C@H](NC(=O)C=C)C5)nc(OCC56CCCN5CCC6)nc4c3F)c12 [Example 9, N-[(3S)-1-[7-(8-ethynyl-7-fluoro-3-hydroxynaphthalen-1-yl)-8-fluoro-2-(hexahydropyrrolizin-7a-ylmethoxy)pyrido[4,3-d]pyrimidin-4-yl]azepan-3-yl]prop-2-enamide]
IC50 [1]: 6.4 nM | Binding Model [2]: Covalent binding | IC50 (HIS-KRAS (G12V)): 3.15 nM

C#Cc1c(F)ccc2cc(O)cc(-c3ncc4c(N5CCCC[C@@H](NC(=O)C=C)C5)nc(OCC56CCCN5CCC6)nc4c3F)c12 [Example 8, N-[(3R)-1-[7-(8-ethynyl-7-fluoro-3-hydroxynaphthalen-1-yl)-8-fluoro-2-(hexahydropyrrolizin-7a-ylmethoxy)pyrido[4,3-d]pyrimidin-4-yl]azepan-3-yl]prop-2-enamide]
IC50 [1]: 7.11 nM | Binding Model [2]: Covalent binding | IC50 (HIS-KRAS (G12V)): 22.9 nM
